In patent US12435044B2, “Pyridazinone herbicides and pyridazinone intermediates used to prepare a herbicide” (FMC Corporation, priority 2018, dated 2025):

Columns and labels:
Assay type in all cases: in vivo
[1] = test system: barnyardgrass (Echinochloa crus-galli); experiment: Test B flooded paddy test; conditions: Flood, 250 g ai/ha
Description: (§1) Plant species in the flooded paddy test selected from rice (Oryza sativa), sedge, umbrella (small-flower umbrella sedge, Cyperus difformis), duck salad (Heteranthera limosa) and barnyardgrass (Echinochloa crus-galli) were grown to the 2-leaf stage for testing. At time of treatment, test pots were flooded to 3 cm above the soil surface, treated by application of test compounds directly to the paddy water, and then maintained at that water depth for the duration of the test. Treated plants and controls were maintained in a greenhouse for 13 to 15 d, after which time all species were compared to controls and visually evaluated. Plant response ratings, summarized in Table B, are based on a scale of 0 to 100 where 0 is no effect and 100 is complete control. A dash (-) response means no test result.

[2] = test system: duck salad (Heteranthera limosa); experiment: Test B flooded paddy test; conditions: Flood, 250 g ai/ha, Ducksalad
Description: as §1

rice (Oryza sativa) = experiment: Test B flooded paddy test; conditions: Flood, 250 g ai/ha
Description: as §1

[3] = test system: sedge, umbrella (small-flower umbrella sedge, Cyperus difformis); experiment: Test B flooded paddy test; conditions: Flood, 250 g ai/ha
Description: as §1

[4] = test system: oilseed rape (Brassica napus); experiment: Test C pre-/postemergence greenhouse test; conditions: scale 0 to 100
Text: (§2) Seeds of plant species selected from blackgrass (Alopecurus myosuroides), ryegrass, Italian (Lolium multiflorum), wheat, winter (winter wheat, Triticum aestivum), galium (catchweed bedstraw, Galium aparine), corn (Zea mays), crabgrass, large (Digitaria sanguinalis), foxtail, giant (Setaria faberii), johnsongrass (Sorghum halepense), lambsquarters (Chenopodium album), morningglory (Ipomoea coccinea), nutsedge, yellow (Cyperus esculentus), pigweed (Amaranthus retroflexus), ragweed (common ragweed, Ambrosia elatior), soybean (Glycine max), barnyardgrass (Echinochloa crus-galli), oilseed rape (Brassica napus), waterhemp (common waterhemp, Amaranthus rudis), pigweed, palmer (Amaranthus palmeri), kochia (Kochia scoparia), oat, wild (Avena fatua), surinam grass (Brachiaria decumbens), windgrass (Apera spica-venti), poinsettia, wild (Euphorbia heterophylla) and velvetleaf (Abutilon theophrasti) were planted into a silt loam soil and treated preemergence with test chemicals formulated in a non-phytotoxic solvent mixture which included a surfactant.
(§3) At the same time, plants selected from these crop and weed species and also chickweed (common chickweed, Stellaria media), buckwheat, wild (Polygonum convolvulus), mustard, wild (Sinapis arvensis), field poppy (Papaver rhoeas), field violet (Viola arvensis), nightshade (eastern black nightshade, Solanum ptycanthum), speedwell (bird's-eye speedwell, Veronica persica), horseweed (Conyza canadensis), cutleaf geranium (Geranium dissectum), and Canada thistle (Cirsium arvense) were planted in pots containing Redi-Earth® planting medium (Scotts Company, 14111 Scottslawn Road, Marysville, Ohio 43041) comprising spaghnum peat moss, vermiculite, wetting agent and starter nutrients and treated with postemergence applications of test chemicals formulated in the same manner. Plants ranged in height from 2 to 18 cm (1- to 4-leaf stage) for postemergence treatments. Treated plants and controls were maintained in a greenhouse for 13 to 21 d, after which time all species were compared to controls and visually evaluated. Plant response ratings, summarized in Table C-1 (postemergence) and C-2 (preemergence), are based on a scale of 0 to 100 where 0 is no effect and 100 is complete control. A dash (-) response means no test result.

soybean (Glycine max) = experiment: Test C pre-/postemergence greenhouse test; conditions: scale 0 to 100
Text: as §2, §3

[5] = test system: waterhemp (common waterhemp, Amaranthus rudis); experiment: Test C pre-/postemergence greenhouse test; conditions: scale 0 to 100
Text: as §2, §3

[6] = test system: wheat, winter (winter wheat, Triticum aestivum); experiment: Test C pre-/postemergence greenhouse test; conditions: scale 0 to 100
Text: as §2, §3

[7] = test system: chickweed (common chickweed, Stellaria media); experiment: Test C postemergence greenhouse test; conditions: scale 0 to 100
Text: as §2, §3

[8] = test system: field poppy (Papaver rhoeas); experiment: Test C postemergence greenhouse test; conditions: scale 0 to 100
Text: as §2, §3

[9] = test system: barnyardgrass (Echinochloa crus-galli); experiment: Test C flooded paddy test; conditions: Flood, scale 0 to 100
Text: as §1, with “consisted of” for “selected from”, “(transplanted and water seeded, Oryza” for “(Oryza”, “ducksalad” for “duck salad”, “limosa), Bulrush, Japanese (Scirpus juncoides)” for “limosa)”, “crus-galli)” for “crus-galli) were”, “C” for “B,”

[10] = test system: ducksalad (Heteranthera limosa); experiment: Test C flooded paddy test; conditions: Flood, scale 0 to 100
Text: as §1, with “consisted of” for “selected from”, “(transplanted and water seeded, Oryza” for “(Oryza”, “ducksalad” for “duck salad”, “limosa), Bulrush, Japanese (Scirpus juncoides)” for “limosa)”, “crus-galli)” for “crus-galli) were”, “C” for “B,”

[11] = test system: rice (transplanted and water seeded, Oryza sativa); experiment: Test C flooded paddy test; conditions: Flood, scale 0 to 100
Text: as §1, with “consisted of” for “selected from”, “(transplanted and water seeded, Oryza” for “(Oryza”, “ducksalad” for “duck salad”, “limosa), Bulrush, Japanese (Scirpus juncoides)” for “limosa)”, “crus-galli)” for “crus-galli) were”, “C” for “B,”

[12] = test system: sedge, umbrella (small-flower umbrella sedge, Cyperus difformis); experiment: Test C flooded paddy test; conditions: Flood, scale 0 to 100
Text: as §1, with “consisted of” for “selected from”, “(transplanted and water seeded, Oryza” for “(Oryza”, “ducksalad” for “duck salad”, “limosa), Bulrush, Japanese (Scirpus juncoides)” for “limosa)”, “crus-galli)” for “crus-galli) were”, “C” for “B,”

`Cc1cc(Cl)c2ccccc2c1-c1c(O)c(Cl)nn(C)c1=O` [Cpd. No. 65] was tested, and the “Plant response rating (0 to 100 scale)” value [1] was 40, the “Plant response rating (0 to 100 scale)” value [2] was 80 and the “Plant response rating (0 to 100 scale)” value (rice (Oryza sativa)) was 20. For the same compound, the “Plant response rating (0 to 100 scale)” value [3] was 90, the “Plant response rating, Oilseed Rape” value ([4]; Postemergence, 16 g ai/ha) was 95 and the “Plant response rating, Oilseed Rape” value ([4]; Postemergence, 31 g ai/ha) was 100. For the same compound, the “Plant response rating, Oilseed Rape” value ([4]; Postemergence, 62 g ai/ha) was 100, the “Plant response rating, Oilseed Rape” value ([4]; Postemergence, 125 g ai/ha) was 100 and the “Plant response rating, Oilseed Rape” value ([4]; Preemergence, 31 g ai/ha) was 5. For the same compound, the “Plant response rating, Oilseed Rape” value ([4]; Preemergence, 61 g ai/ha) was 5, the “Plant response rating, Oilseed Rape” value ([4]; Preemergence, 62 g ai/ha) was 98 and the “Plant response rating, Oilseed Rape” value ([4]; Preemergence, 125 g ai/ha) was 100. The “Plant response rating, Soybean” value (soybean (Glycine max); Postemergence, 16 g ai/ha) was 65, the “Plant response rating, Soybean” value (soybean (Glycine max); Postemergence, 31 g ai/ha) was 75 and the “Plant response rating, Soybean” value (soybean (Glycine max); Postemergence, 62 g ai/ha) was 80. The “Plant response rating, Soybean” value (soybean (Glycine max); Postemergence, 125 g ai/ha) was 85, the “Plant response rating, Soybean” value (soybean (Glycine max); Preemergence, 31 g ai/ha) was 0 and the “Plant response rating, Soybean” value (soybean (Glycine max); Preemergence, 61 g ai/ha) was 0. For the same compound, the “Plant response rating, Soybean” value (soybean (Glycine max); Preemergence, 62 g ai/ha) was 5, the “Plant response rating, Soybean” value (soybean (Glycine max); Preemergence, 125 g ai/ha) was 30 and the “Plant response rating, Waterhemp” value ([5]; Postemergence, 16 g ai/ha) was 80. The “Plant response rating, Waterhemp” value ([5]; Postemergence, 31 g ai/ha) was 90, the “Plant response rating, Waterhemp” value ([5]; Postemergence, 62 g ai/ha) was 95 and the “Plant response rating, Waterhemp” value ([5]; Postemergence, 125 g ai/ha) was 95. For the same compound, the “Plant response rating, Waterhemp” value ([5]; Preemergence, 31 g ai/ha) was 75, the “Plant response rating, Waterhemp” value ([5]; Preemergence, 61 g ai/ha) was 80 and the “Plant response rating, Waterhemp” value ([5]; Preemergence, 62 g ai/ha) was 85. The “Plant response rating, Waterhemp” value ([5]; Preemergence, 125 g ai/ha) was 95, the “Plant response rating, Wheat” value ([6]; Postemergence, 16 g ai/ha) was 90 and the “Plant response rating, Wheat” value ([6]; Postemergence, 31 g ai/ha) was 95. For the same compound, the “Plant response rating, Wheat” value ([6]; Postemergence, 62 g ai/ha) was 95, the “Plant response rating, Wheat” value ([6]; Postemergence, 125 g ai/ha) was 95 and the “Plant response rating, Wheat” value ([6]; Preemergence, 31 g ai/ha) was 60. For the same compound, the “Plant response rating, Wheat” value ([6]; Preemergence, 61 g ai/ha) was 30, the “Plant response rating, Wheat” value ([6]; Preemergence, 62 g ai/ha) was 80 and the “Plant response rating, Wheat” value ([6]; Preemergence, 125 g ai/ha) was 90. The “Plant response rating, Chickweed” value ([7]; 16 g ai/ha) was 98, the “Plant response rating, Chickweed” value ([7]; 31 g ai/ha) was 95 and the “Plant response rating, Chickweed” value ([7]; 62 g ai/ha) was 95. For the same compound, the “Plant response rating, Chickweed” value ([7]; 125 g ai/ha) was 98, the “Plant response rating, Field Poppy” value ([8]; 16 g ai/ha) was 80 and the “Plant response rating, Field Poppy” value ([8]; 31 g ai/ha) was 98. The “Plant response rating, Field Poppy” value ([8]; 62 g ai/ha) was 98, the “Plant response rating, Field Poppy” value ([8]; 125 g ai/ha) was 100 and the “Plant response rating, Barnyardgrass” value ([9]; 31 g ai/ha) was 0. The “Plant response rating, Barnyardgrass” value ([9]; 62 g ai/ha) was 10, the “Plant response rating, Barnyardgrass” value ([9]; 125 g ai/ha) was 30 and the “Plant response rating, Barnyardgrass” value ([9]; 250 g ai/ha) was 100. The “Plant response rating, Ducksalad” value ([10]; 31 g ai/ha) was 95, the “Plant response rating, Ducksalad” value ([10]; 62 g ai/ha) was 100 and the “Plant response rating, Ducksalad” value ([10]; 125 g ai/ha) was 100. For the same compound, the “Plant response rating, Ducksalad” value ([10]; 250 g ai/ha) was 100, the “Plant response rating, Rice, Transplanted” value ([11]; 31 g ai/ha) was 0 and the “Plant response rating, Rice, Transplanted” value ([11]; 62 g ai/ha) was 0. The “Plant response rating, Rice, Transplanted” value ([11]; 125 g ai/ha) was 20, the “Plant response rating, Rice, Water Seeded” value ([11]; 125 g ai/ha) was 10 and the “Plant response rating, Rice, Transplanted” value ([11]; 250 g ai/ha) was 70. For the same compound, the “Plant response rating, Sedge, Umbrella” value ([12]; 31 g ai/ha) was 95, the “Plant response rating, Sedge, Umbrella” value ([12]; 62 g ai/ha) was 100 and the “Plant response rating, Sedge, Umbrella” value ([12]; 125 g ai/ha) was 100. For the same compound, the “Plant response rating, Sedge, Umbrella” value ([12]; 250 g ai/ha) was 100.
